Literature values as cited in patent US20140288136A1, “METHODS AND USES OF CYTOCHROME P450 INHIBITORS” (ANGION BIOMEDICA CORP, priority 2009, published 2014).
Where two headings read alike, the source gives them in different places.

System: hepatitis C
Conditions: chronic hepatitis C infection

For interferon, the response (in combination with ribavirin) is listed as ~50% and the response (used alone) is listed as ~20%.
